Test results published in US9745320B2, “Five-and-six-membered heterocyclic compound, and preparation method, pharmaceutical composition and use thereof” (SHANGHAI CHEMEXPLORER CO., LTD., priority 2013, dated 2017).

Assays:
Type in all cases: biochemical
JAK2 = JAK2 (Homo sapiens, UniProt O60674); test: JAK 2 enzymatic inhibitory activity IC50 assay (Caliper conversion rate); settings: Km ATP, 28° C., 1 hour
Experimental: (§1) Biological effect: intracytoplasmic JAK 1,2,3 enzymatic inhibitory activity IC50 assay
(§2) JAK1 buffer solution: 25 mM HEPES, pH 7.5, 0.01% Brij-35, 0.01 M Triton. JAK2,3 buffer solution: 50 mM HEPES, pH 7.5, 0.0015% Brij-35.
(§3) 2. Compound was formulated in 100% DMSO in a concentration gradient, deposited to a 384-well plate with a final concentration of 2% of DMSO.
(§4) 3. JAK2,3 enzymes were diluted to having an optimum concentration with the following buffer: 50 mM HEPES, pH 7.5, 0.0015% Brij-35, 2 mM DTT. JAK1 enzyme was diluted to having an optimum concentration with the following buffer: 25 mM HEPES, pH 7.5, 0.01% Brij-35, 2 mM DTT, 0.01M Triton. Then they were transferred to a 384-well plate and incubated with the compound for a certain time.
(§5) 4. JAK2,3 substrate was diluted to having an optimum concentration with the following buffer: 50 mM HEPES, pH 7.5, 0.0015% Brij-35, 10 mM MgCl2, Km adenosine triphosphate. JAK1 substrate was diluted to having an optimum concentration with the following buffer: 25 mM HEPES, pH 7.5, 0.01% Brij-35, 10 mM MgCl2, 0.01 M Triton. Km adenosine triphosphate was added into 384-well plates to initiate reactions, and the reaction were carried out at 28° C. for 1 hour.
(§6) 5. Read the conversion rate by Caliper Reader, and the inhibition rate are calculated according to the average of two tests.

JAK3 = target: T1, JAK3 (Homo sapiens, UniProt P52333); test: JAK 3 enzymatic inhibitory activity IC50 assay (Caliper conversion rate); settings: Km ATP, 28° C., 1 hour; read-out: JAK 3 enzymatic inhibitory activity IC50
T1 sequence (P52333 1-1124): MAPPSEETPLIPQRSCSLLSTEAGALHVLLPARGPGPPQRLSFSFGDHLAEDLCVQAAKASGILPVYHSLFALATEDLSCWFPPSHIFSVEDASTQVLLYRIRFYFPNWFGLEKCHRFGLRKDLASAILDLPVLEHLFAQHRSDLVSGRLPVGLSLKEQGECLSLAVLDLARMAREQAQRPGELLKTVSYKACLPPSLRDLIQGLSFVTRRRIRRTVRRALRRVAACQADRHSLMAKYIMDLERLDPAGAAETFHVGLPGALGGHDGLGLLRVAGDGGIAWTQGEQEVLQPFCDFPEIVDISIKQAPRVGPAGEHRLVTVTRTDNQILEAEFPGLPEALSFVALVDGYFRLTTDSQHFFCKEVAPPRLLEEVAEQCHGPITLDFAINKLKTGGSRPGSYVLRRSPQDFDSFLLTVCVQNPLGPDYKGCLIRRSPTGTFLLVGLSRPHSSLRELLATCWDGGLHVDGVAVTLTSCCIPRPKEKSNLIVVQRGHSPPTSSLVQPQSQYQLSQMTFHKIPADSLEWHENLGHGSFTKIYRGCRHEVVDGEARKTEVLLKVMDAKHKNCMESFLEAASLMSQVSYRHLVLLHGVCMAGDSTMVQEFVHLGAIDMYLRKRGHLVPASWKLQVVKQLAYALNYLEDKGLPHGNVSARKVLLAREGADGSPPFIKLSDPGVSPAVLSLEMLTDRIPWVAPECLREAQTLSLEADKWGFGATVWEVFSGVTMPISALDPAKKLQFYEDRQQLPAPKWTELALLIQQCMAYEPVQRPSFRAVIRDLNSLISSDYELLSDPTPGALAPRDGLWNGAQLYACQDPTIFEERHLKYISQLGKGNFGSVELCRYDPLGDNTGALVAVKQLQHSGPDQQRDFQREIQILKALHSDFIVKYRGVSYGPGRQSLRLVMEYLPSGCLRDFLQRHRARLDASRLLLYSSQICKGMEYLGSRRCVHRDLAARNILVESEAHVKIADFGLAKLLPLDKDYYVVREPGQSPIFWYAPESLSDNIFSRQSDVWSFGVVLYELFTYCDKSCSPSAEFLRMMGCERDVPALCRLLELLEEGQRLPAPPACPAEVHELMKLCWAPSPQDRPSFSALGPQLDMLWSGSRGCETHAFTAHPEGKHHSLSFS
Experimental: as §1, §2, §3
as §4, with “time. […]” for “time.”
as §6

JAK1 = JAK1 (Homo sapiens, UniProt P23458); test: JAK 1 enzymatic inhibitory activity IC50 assay (Caliper conversion rate); settings: Km ATP, 28° C., 1 hour
Experimental: as §1, §2, §3, §4, §5, §6

Chain of JAK2 (O60674 whole entry, species assumed): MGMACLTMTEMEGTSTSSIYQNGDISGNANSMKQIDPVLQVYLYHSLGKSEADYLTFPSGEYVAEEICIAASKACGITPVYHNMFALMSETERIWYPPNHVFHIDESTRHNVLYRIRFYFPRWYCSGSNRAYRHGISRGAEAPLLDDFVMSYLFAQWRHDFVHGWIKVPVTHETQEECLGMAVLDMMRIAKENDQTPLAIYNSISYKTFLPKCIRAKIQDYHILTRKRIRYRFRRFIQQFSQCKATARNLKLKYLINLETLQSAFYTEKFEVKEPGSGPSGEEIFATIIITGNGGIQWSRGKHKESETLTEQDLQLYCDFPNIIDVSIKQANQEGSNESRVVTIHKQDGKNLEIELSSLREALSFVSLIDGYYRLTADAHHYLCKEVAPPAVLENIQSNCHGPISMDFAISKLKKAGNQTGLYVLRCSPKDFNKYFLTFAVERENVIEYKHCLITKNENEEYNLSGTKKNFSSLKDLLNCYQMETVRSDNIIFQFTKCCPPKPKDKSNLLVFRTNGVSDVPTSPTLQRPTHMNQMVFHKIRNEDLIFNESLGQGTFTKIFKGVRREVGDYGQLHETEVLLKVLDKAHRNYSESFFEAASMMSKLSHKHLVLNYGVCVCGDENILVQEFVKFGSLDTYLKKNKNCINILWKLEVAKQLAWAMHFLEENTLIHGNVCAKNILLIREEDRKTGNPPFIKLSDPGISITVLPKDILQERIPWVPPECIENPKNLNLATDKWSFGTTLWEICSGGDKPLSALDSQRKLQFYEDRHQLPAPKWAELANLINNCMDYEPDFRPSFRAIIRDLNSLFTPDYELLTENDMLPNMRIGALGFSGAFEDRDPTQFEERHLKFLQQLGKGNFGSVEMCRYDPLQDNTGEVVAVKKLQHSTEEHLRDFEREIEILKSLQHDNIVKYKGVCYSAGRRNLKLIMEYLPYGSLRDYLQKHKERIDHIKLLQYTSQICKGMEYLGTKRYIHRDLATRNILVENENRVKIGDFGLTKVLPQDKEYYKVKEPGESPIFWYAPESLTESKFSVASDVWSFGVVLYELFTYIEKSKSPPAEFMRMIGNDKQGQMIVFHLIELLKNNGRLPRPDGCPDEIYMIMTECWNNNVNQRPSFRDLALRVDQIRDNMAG
Chain of JAK1 (P23458 whole entry, species assumed): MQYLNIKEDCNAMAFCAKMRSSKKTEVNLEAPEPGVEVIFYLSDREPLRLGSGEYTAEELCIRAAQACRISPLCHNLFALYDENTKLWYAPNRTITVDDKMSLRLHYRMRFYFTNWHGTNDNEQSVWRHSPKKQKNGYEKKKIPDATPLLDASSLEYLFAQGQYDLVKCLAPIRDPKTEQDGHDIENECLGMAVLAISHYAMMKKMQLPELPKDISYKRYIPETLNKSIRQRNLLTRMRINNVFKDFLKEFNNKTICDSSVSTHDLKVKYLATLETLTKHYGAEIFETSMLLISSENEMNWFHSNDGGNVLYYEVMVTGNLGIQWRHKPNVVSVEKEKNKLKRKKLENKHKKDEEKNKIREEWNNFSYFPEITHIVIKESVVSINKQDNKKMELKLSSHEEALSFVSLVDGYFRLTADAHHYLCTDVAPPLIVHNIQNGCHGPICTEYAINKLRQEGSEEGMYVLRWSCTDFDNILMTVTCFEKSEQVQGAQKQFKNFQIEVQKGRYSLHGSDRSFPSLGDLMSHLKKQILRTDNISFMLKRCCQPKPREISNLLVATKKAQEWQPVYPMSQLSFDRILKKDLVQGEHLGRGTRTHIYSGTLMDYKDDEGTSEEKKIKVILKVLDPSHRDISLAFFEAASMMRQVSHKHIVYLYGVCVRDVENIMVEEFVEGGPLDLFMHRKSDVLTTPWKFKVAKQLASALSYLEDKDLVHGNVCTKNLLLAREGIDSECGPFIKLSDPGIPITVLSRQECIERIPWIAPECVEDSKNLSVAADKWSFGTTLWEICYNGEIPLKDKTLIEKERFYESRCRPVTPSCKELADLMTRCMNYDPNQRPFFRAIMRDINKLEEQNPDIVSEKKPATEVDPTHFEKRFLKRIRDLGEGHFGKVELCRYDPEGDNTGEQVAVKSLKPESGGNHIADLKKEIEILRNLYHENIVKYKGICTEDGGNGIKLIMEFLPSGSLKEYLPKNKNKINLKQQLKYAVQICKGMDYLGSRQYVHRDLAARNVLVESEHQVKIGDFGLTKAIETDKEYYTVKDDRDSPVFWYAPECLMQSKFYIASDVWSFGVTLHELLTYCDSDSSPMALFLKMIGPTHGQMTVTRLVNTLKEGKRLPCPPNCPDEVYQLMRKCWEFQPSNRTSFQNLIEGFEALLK

IC50 (JAK2)	IC50 (JAK3)	IC50 (JAK1)	SMILES
< 50 nM	500 to 1000 nM	50 to 500 nM	CCS(=O)(=O)N1CC(CC#N)(n2cc(-c3nc(Nc4ccc(S(C)(=O)=O)cc4)nc4sccc34)cn2)C1 [Compound T-18, 2-(1-(Ethylsulfonyl)-3-(4-(2-((4-(methylsulfonyl)phenyl)amino)thieno[2,3-d]pyrimidin-4-yl)-1H-pyrazol-1-yl)azetidin-3-yl)acetonitrile]
< 50 nM	50 to 500 nM	50 to 500 nM	CCS(=O)(=O)N1CC(CC#N)(n2cc(-c3nc(Nc4ccc(C#N)cc4)nc4ccsc34)cn2)C1 [Compound T-19, 4-((4-(1-(3-(Cyanomethyl)-1-(ethylsulfonyl)azetidin-3-yl)-1H-pyrazol-4-yl)thieno[3,2-d]pyrimidin-2-yl)amino)benzonitrile]
< 50 nM	50 to 500 nM	50 to 500 nM	CCS(=O)(=O)N1CC(CC#N)(n2cc(-c3nc(Nc4ccncc4)nc4ccsc34)cn2)C1 [Compound T-21, 2-(1-(Ethylsulfonyl)-3-(4-(2-(pyridin-4-ylamino)thieno[3,2-d]pyrimidin-4-yl)-1H-pyrazol-1-yl)azetidin-3-yl)acetonitrile]
< 50 nM	> 1000 nM	> 1000 nM	CCS(=O)(=O)N1CC(CC#N)(n2cc(-c3nc(Nc4ccc(C#N)nc4)nc4ccsc34)cn2)C1 [Compound T-22, 5-((4-(1-(3-(Cyanomethyl)-1-(ethylsulfonyl)azetidin-3-yl)-1H-pyrazol-4-yl)thieno[3,2-d]pyrimidin-2-yl)amino)picolinonitrile]
> 1000 nM	> 1000 nM	> 1000 nM	CCS(=O)(=O)N1CC(CC#N)(n2cc(-c3nc(Nc4ccccc4)nc4cc(C)sc34)cn2)C1 [Compound T-23, 2-(1-(Ethylsulfonyl)-3-(4-(6-methyl-2-(phenylamino)thieno[3,2-d]pyrimidin-4-yl)-1H-pyrazol-1-yl)azetidin-3-yl)acetonitrile]
< 50 nM	50 to 500 nM	< 50 nM	CCS(=O)(=O)N1CC(CC#N)(n2cc(-c3nc(Nc4cccnc4)nc4ccsc34)cn2)C1 [Compound T-26, 2-(1-(Ethylsulfonyl)-3-(4-(2-(pyridin-3-ylamino)thieno[3,2-d]pyrimidin-4-yl)-1-pyrazol-1-yl)azetidin-3-yl)acetonitrile]
> 1000 nM	> 1000 nM	> 1000 nM	CCS(=O)(=O)N1CC(CC#N)(n2cc(-c3nc(NC4CC4)nc4ccsc34)cn2)C1 [Compound T-28, 2-(3-(4-(2-(Cyclopropylamino)thieno[3,2-d]pyrimidin-4-yl)-1H-pyrazol-1-yl)-1-(ethylsulfonyl)azetidin-3-yl)acetonitrile]
< 50 nM	< 50 nM	< 50 nM	CCS(=O)(=O)N1CC(CC#N)(n2cc(-c3nc(Nc4cnn(C(=O)COC)c4)nc4ccsc34)cn2)C1 [Compound T-32, 2-(1-(Ethylsulfonyl)-3-(4-(2-((1-(2-methoxyacetyl)-1H-pyrazol-4-yl)amino)thieno[3,2-d]pyrimidin-4-yl)-1H-pyrazol-1-yl)azetidin-3-yl)acetonitrile]
< 50 nM	50 to 500 nM	50 to 500 nM	CCCCOC(=O)CCn1cc(Nc2nc(-c3cnn(C4(CC#N)CN(S(=O)(=O)CC)C4)c3)c3sccc3n2)cn1 [Compound T-34, Butyl 3-(4-((4-(1-(3-(cyanomethyl)-1-(ethylsulfonyl)azetidin-3-yl)-1H-pyrazol-4-yl)thieno[3,2-d]pyrimidin-2-yl)amino)-1H-pyrazol-1-yl)propanoate]

The remaining lines, values behind:

SMILES	IC50 (JAK2)	IC50 (JAK3)	IC50 (JAK1)
N#CCC1(n2cc(-c3nc(Nc4ccccc4)nc4ccsc34)cn2)COC1 [Compound T-20, 2-(3-(4-(2-(Phenylamino)thieno[3,2-d]pyrimidin-4-yl)-1H-pyrazol-1-yl)oxetan-3-yl)acetonitrile]	< 50 nM	500 to 1000 nM	50 to 500 nM
CCS(=O)(=O)N1CC(CC#N)(n2cc(-c3nc(Nc4ccn(C)n4)nc4ccsc34)cn2)C1 [Compound T-25, 2-(1-(Ethylsulfonyl)-3-(4-(2-((1-methyl-1H-pyrazol-3-yl)amino)thieno[3,2-d]pyrimidin-4-yl)-1H-pyrazol-1-yl)azetidin-3-yl)acetonitrile]	< 50 nM	50 to 500 nM	< 50 nM
CCS(=O)(=O)N1CC(CC#N)(n2cc(-c3nc(NC(=O)C4CC4)nc4ccsc34)cn2)C1 [Compound T-29, N-(4-(1-(3-(Cyanomethyl)-1-(ethylsulfonyl)azetidin-3-yl)-1H-pyrazol-4-yl)thieno[3,2-d]pyrimidin-2-yl)cyclopropanecarboxamide]	< 50 nM	> 1000 nM	50 to 500 nM
CCS(=O)(=O)N1CC(CC#N)(n2cc(-c3nc(Nc4ccccc4)nc4ccoc34)cn2)C1 [Compound T-30, 2-(1-(Ethylsulfonyl)-3-(4-(2-(phenylamino)furo[3,2-d]pyrimidin-4-yl)-1H-pyrazol-1-yl)azetidin-3-yl)acetonitrile]	< 50 nM	50 to 500 nM	50 to 500 nM
CCS(=O)(=O)N1CC(CC#N)(n2cc(-c3nc(Nc4cn[nH]c4)nc4ccsc34)cn2)C1 [Compound T-31, 2-(3-(4-(2-((1H-Pyrazol-4-yl)amino)thieno[3,2-d]pyrimidin-4-yl)-1H-pyrazol-1-yl)-1-(ethylsulfonyl)azetidin-3-yl)acetonitrile]	< 50 nM	50 to 500 nM	< 50 nM
CCS(=O)(=O)N1CC(CC#N)(n2cc(-c3nc(Nc4cnn(CC(=O)O)c4)nc4ccsc34)cn2)C1 [Compound T-33, 2-(4-((4-(1-(3-(Cyanomethyl)-1-(ethylsulfonyl)azetidin-3-yl)-1H-pyrazol-4-yl)thieno[3,2-d]pyrimidin-2-yl)amino)-1H-pyrazol-1-yl)acetic acid]	< 50 nM	50 to 500 nM	< 50 nM
CCS(=O)(=O)N1CC(CC#N)(n2cc(-c3nc(Nc4cnn(CCC(=O)O)c4)nc4ccsc34)cn2)C1 [Compound T-35, 3-(4-((4-(1-(3-(Cyanomethyl)-1-(ethylsulfonyl)azetidin-3-yl)-1H-pyrazol-4-yl)thieno[3,2-d]pyrimidin-2-yl)amino)-1H-pyrazol-1-yl)propanoic acid]	< 50 nM	50 to 500 nM	< 50 nM
CCS(=O)(=O)N1CC(CC#N)(n2cc(-c3nc(Nc4cnn(CCC(=O)N(C)C)c4)nc4ccsc34)cn2)C1 [Compound T-36, 3-(4-((4-(1-(3-(Cyanomethyl)-1-(ethylsulfonyl)azetidin-3-yl)-1H-pyrazol-4-yl)thieno[3,2-d]pyrimidin-2-yl)amino)-1H-pyrazol-1-yl)-N,N-dimethylpropanamide]	< 50 nM	< 50 nM	50 to 500 nM
CCS(=O)(=O)N1CC(CC#N)(n2cc(-c3nc(Nc4cnn(CCCC(=O)N(C)C)c4)nc4ccsc34)cn2)C1 [Compound T-37, 4-(4-((4-(1-(3-(Cyanomethyl)-1-(ethylsulfonyl)azetidin-3-yl)-1H-pyrazol-4-yl)thieno[3,2-d]pyrimidin-2-yl)amino)-1H-pyrazol-1-yl)-N,N-dimethylbutanamide]	< 50 nM	< 50 nM	< 50 nM
